A word on the half-life: it is how long it takes for the measured level to halve. Read a high half-life as slow loss. In general, microsomal CLint refers to the rate of metabolic loss divided by the concentration. By AUC is commonly meant concentration integrated over time. A lower AUC goes with less exposure. In general, clearance refers to a measure of how efficiently the substance is removed, as volume per time. A low value points to inefficient removal.

Where a name gives a salt, the structure may show the parent alone.

The values below come from patent US20260274797A1, “PROPIONIC ACID DERIVATIVE AND USE THEREOF IN MEDICINE” (Xizang Haisco Pharmaceutical Co., Ltd., priority 2022, published 2026).

One series addresses T1, integrin α4β1 (Homo sapiens, UniProt P05556+P13612).
T1 construct: Jurkat cells were collected, washed twice using DPBS buffer; endogenous in cells; host or cells: Jurkat cells
As to the kind of experiment: Integrin α4β1-mediated cell adhesion assay (Jurkat cells on VCAM). In kind it is cell-based. The conditions noted are these: for IC50: Jurkat cells adhering to VCAM-1, α4β1-mediated cell adhesion; for α4β1/α4β7: selectivity ratio, Jurkat (α4β1)/VCAM-1 IC50 over RPMI-8866 (α4β7)/MadCAM-1 IC50. How it is done: VCAM was formulated into a final concentration of […] with a coating buffer, 50 μl of the solution was transferred to a 96-well plate, and the plate was coated with same at 4° C. overnight. The plate was washed with coating buffer three times, then 150 μl of a blocking solution (coating buffer containing 1% BSA) was added, and the plate was blocked at 37° C. for 1 h. Jurkat cells were collected, washed twice using DPBS buffer, and then resuspended to 4×10^6 cells/ml with an action buffer. 50 μl of the cell suspension was transferred to a 96-well plate so that the cell density reached 2×10^5 cells/well. Then 1 μl of the test compound at different concentration or DMSO was added and the plate was incubated at 37° C. for 1 h. The plate was washed with coating buffer to remove non-adherent cells. 50 μl of a substrate (4-nitrophenyl-N-acetyl-β-D-glucosaminide) was added and the plate was incubated at 37° C. for 2 h.
Coating buffer: DMEM+20 mM HEPES+0.4 mM MnCl2
Action buffer: DMEM+20 mM HEPES+0.1% BSA+0.4 mM MnCl2
DMEM: dulbecco's modified eagle medium;
HEPES: 2-[4-(2-hydroxyethyl)piperazin-1-yl]ethanesulfonic acid

A further series addresses T2, integrin α4β7 (Homo sapiens, UniProt P13612+P26010).
T2 sequence (P13612 34-1032): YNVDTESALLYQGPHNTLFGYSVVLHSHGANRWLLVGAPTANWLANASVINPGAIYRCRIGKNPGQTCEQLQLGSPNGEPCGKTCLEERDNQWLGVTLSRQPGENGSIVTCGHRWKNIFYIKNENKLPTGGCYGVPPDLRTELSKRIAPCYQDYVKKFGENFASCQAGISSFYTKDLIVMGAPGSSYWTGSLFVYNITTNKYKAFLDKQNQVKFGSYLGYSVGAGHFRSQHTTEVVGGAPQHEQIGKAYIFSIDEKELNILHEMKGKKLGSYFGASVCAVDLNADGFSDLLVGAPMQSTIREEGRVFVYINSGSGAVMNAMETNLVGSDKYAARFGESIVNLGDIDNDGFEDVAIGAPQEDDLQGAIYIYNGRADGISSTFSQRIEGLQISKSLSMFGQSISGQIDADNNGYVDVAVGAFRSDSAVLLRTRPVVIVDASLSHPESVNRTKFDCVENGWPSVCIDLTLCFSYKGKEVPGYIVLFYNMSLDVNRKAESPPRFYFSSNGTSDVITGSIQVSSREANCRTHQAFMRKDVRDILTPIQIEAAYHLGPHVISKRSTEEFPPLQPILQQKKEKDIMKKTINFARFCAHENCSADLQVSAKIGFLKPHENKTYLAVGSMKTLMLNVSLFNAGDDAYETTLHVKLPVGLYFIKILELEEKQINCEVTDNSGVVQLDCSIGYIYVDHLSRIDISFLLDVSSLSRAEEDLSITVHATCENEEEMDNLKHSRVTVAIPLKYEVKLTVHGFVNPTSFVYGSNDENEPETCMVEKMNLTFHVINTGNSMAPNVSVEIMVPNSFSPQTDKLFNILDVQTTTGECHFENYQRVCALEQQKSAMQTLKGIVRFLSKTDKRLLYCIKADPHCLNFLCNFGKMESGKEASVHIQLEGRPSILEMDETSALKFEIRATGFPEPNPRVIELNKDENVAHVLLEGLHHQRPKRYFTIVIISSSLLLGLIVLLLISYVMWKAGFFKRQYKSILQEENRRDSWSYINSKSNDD
T2 sequence (P26010 20-798): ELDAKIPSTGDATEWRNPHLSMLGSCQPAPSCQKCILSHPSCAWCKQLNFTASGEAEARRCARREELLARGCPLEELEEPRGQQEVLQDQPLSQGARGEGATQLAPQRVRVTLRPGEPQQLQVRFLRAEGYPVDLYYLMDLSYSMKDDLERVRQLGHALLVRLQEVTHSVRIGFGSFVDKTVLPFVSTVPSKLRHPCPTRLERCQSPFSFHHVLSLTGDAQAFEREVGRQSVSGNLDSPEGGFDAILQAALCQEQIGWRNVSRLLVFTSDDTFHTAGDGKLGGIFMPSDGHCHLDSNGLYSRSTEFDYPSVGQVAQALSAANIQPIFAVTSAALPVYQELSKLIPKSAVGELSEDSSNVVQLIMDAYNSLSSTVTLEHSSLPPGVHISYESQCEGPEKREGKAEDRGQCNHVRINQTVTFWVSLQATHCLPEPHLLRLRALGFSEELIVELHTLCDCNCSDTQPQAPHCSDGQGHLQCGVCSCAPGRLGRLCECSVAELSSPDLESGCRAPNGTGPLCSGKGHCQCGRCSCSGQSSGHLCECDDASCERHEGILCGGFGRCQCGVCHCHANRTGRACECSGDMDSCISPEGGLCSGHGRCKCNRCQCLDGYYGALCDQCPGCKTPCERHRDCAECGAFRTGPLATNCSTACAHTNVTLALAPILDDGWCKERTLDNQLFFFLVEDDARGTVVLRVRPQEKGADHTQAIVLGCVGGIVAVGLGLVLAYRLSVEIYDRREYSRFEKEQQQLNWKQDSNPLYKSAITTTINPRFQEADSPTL
The experiment in a line: Integrin α4β7 cell adhesion assay (RPMI8866 cells on MAdCAM-1). Format: cell-based. The note with it: RPMI8866 cells adhering to MAdCAM-1; α4β7-mediated cell adhesion; read-out: RPMI-8866 (α4β7)/MadCAM-1 IC50. How it is done: MAdCAM-1 was formulated with TBS buffer to a final concentration of […], 50 μl of the solution was transferred to a 96-well plate, and the plate was coated with same at 4° C. overnight. The plate was washed with TBS buffer three times, then 150 μl of a blocking solution (TBS buffer containing 1% BSA) was added, and the plate was blocked at 37° C. for 1 h. […] 50 μl of the cell suspension was transferred to a 96-well plate so that the cell density reached 2×10^5 cells/well. Then 1 μl of the compound at different concentrations or DMSO was added and the plate was incubated at 37° C. for 1 h or 2 h. The plate was washed with TBS buffer to remove non-adherent cells. 50 μl of a substrate (4-nitrophenyl-N-acetyl-o-D-glucosaminide) was added and the plate was incubated at 37° C. for 2 h. […] The IC50 value was calculated using GraphPad Prism 6 software.

Series [1] in a line: Pharmacokinetic test in rats. Format: in vivo, SD rats. How it is done: Experimental animals: Male SD rats, about 220 g, 6-8 weeks old, 6 rats/compound, purchased from Chengdu Ddossy Experimental Animals Co., Ltd.
Experimental design: on the day of the test, 6 SD rats/compound were randomly grouped according to their body weights. The animals were fasted with water available for 12 to 14 h one day before the administration and were fed 4 h after the administration.

Series [2] can be described thus: Test of stability in liver microsomes (rat). The conditions noted are these: 1 μM test compound, NADPH, 37° C. In kind it is in vitro ADME. How it is done: (§1) In this experiment, liver microsomes of three species, including monkey, rat and mouse, were used as in vitro models to evaluate the metabolic stability of the test compound.
(§2) At 37° C., 1 μM of the test compound was co-incubated with microsomal protein and coenzyme NADPH. At given time points of the reaction (5 min, 10 min, 20 min, 30 min, and 60 min), the reaction was terminated by adding ice-cold acetonitrile containing an internal standard. The LC-MS/MS method was used to measure the concentration of the test compound in the sample. T1/2 was calculated using the natural logarithm (ln) of the residual rate of the drug in the incubation system and the incubation time. In addition, the intrinsic clearance in liver microsomes CLint(mic) and the intrinsic clearance in liver CLint(Liver) were further calculated.
(Liver microsomes are a subcellular fraction often used to study metabolism.)

A short description of series [3]: Test of stability in liver microsomes (monkey). In kind it is in vitro ADME. The note with it: 1 μM test compound, NADPH, 37° C. How it is done:
as §1, §2

Series [4] can be described thus: Test of stability in liver microsomes (mouse). Format: in vitro ADME. The conditions noted are these: 1 μM test compound, NADPH, 37° C. How it is done:
as §1, §2

Where [5] appears, read: read-out: Hepatic intrinsic clearance CLint(liver).
The mark [6] stands for this setting: read-out: Hepatic microsomal intrinsic clearance CLint (mic).

T1 sequence (P05556 21-798, one chain of several): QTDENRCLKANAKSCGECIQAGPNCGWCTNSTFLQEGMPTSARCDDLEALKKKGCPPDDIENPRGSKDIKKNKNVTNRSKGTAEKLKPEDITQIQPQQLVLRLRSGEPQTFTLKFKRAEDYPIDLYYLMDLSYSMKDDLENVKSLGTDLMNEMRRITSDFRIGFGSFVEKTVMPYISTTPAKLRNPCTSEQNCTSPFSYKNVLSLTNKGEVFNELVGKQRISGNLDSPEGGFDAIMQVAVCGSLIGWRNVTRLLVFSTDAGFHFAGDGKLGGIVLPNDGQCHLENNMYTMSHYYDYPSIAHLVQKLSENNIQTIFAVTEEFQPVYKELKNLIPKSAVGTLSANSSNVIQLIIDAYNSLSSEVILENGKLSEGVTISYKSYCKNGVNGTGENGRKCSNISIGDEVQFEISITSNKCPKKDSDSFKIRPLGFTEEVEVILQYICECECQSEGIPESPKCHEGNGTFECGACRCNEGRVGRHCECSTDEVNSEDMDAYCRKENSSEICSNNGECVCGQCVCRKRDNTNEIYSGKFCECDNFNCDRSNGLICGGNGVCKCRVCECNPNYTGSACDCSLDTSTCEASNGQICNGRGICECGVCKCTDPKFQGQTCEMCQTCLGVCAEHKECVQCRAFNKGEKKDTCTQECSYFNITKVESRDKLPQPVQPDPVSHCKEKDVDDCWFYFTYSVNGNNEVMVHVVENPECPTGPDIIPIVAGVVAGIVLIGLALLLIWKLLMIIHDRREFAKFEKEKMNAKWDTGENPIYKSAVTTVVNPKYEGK

Consider `Cc1cc(F)cc(C)c1-c1cc(C(CC(=O)O)NC(=O)C(CC(C)C)n2cc(CCN(C)CC3CC3(F)F)c(C(F)(F)F)cc2=O)cc2c1CCC2` (single isomer, unassigned) [Compound 1-2], for which, on integrin α4β1, the IC50 is > 100 nM.
On to `COc1cc(C)c(-c2c(F)c(C(CC(=O)O)NC(=O)C(CC(C)C)n3cc(CCN(C)C)c(C(F)(F)F)cc3=O)c(F)c3c2CCC3)c(C)c1` (single isomer, unassigned) [Trifluoroacetate salt of compound 21-2], for which the IC50 is > 500 nM against integrin α4β1 and < 1 nM at integrin α4β7.
As for `Cc1cc(F)cc(C)c1-c1c(F)c(C(CC(=O)O)NC(=O)[C@H](CC(C)C)n2cc(CCC3CCCN3C)c(C(F)(F)F)cc2=O)c(F)c2c1CCC2` (single isomer, unassigned) [Trifluoroacetate salt of compound 28-2], the IC50 against integrin α4β1 is > 100 nM.
Same read-out and setting: as for `COc1cc(C)c(-c2c(F)c(C(CC(=O)O)NC(=O)C(CC(C)C)n3cc(CCN(C)C)c(C(F)(F)F)cc3=O)c(F)c3c2CCC3)c(C)c1` (stereo not shown) [Compound 21-A], the figure is > 100 nM.
For `Cc1cc(F)cc(C)c1-c1c(F)c(C(CC(=O)O)NC(=O)[C@H](CC(C)C)n2cc(CC3CN(C(C)C)C3)c(C(F)(F)F)cc2=O)c(F)c2c1CCC2` (stereo partly shown) [Compound 32-2], in series [1] (IV: 1 mg/kg), the CL was determined as 20.2 mL/min/kg.
For the molecule `Cc1ccc2[nH]ncc2c1-c1c(F)c(C(CC(=O)O)NC(=O)[C@H](CC(C)C)n2cc(CCN(C)C)c(C(F)(F)F)cc2=O)c(F)c2c1CCC2` (stereo partly shown) [Compound 33-2], at integrin α4β1, the IC50 is > 100 nM and the α4β1/α4β7 came to 643. In addition, the IC50 at integrin α4β7 was < 0.5 nM.
For `[2H]C([2H])([2H])Oc1cc(C)c(-c2c(F)c([C@H](CC(=O)O)NC(=O)C(CC(C)C)n3cc(CCN4CCC4)c(C(F)(F)F)cc3=O)c(F)c3c2CCC3)c(C)c1` (stereo partly shown) [Compound 40-2], in that order: > 300 nM, 1143 and < 0.5 nM.
As to `Cc1cc(-c2c(C)cc(F)cc2C)cc([C@H](CC(=O)O)NC(=O)[C@H](CC(C)C)n2cc(CCN(C)C)c(C(F)(F)F)cc2=O)c1F` [Control compound A], the half-life at 1 μM in series [2] stood at 35.7 min; in series [3] it was 10.6 min; in series [4], 49.3 min. In addition, the values for the CLint scaled at 1 μM in series [2] (setting [5]), in series [3] (setting [5]) and in series [4] (setting [5]) were 69.9 mL/min/kg, 176 mL/min/kg and 111 mL/min/kg, respectively. Further, the microsomal CLint at 1 μM in series [2] (setting [6]) came out at 38.8 µL/min/mg; in series [3] (setting [6]) it was 130 µL/min/mg; in series [4] (setting [6]), 28.1 µL/min/mg. This molecule showed a F in series [1] (PO: 10 mg/kg vs iv […] (footnote, control compound A)) of 23.9%. The molecule also displayed an AUC in series [1] (male, SD, rat, plasma, PO: 10 mg/kg (footnote, control compound A)) of 900 ng·h/mL. Moreover, in series [1] (male, SD, rat, plasma, iv 2.5 mg/kg (footnote, control compound A)), the clearance was 45.8 mL/min/kg.
On to `Cc1cc(F)cc(C)c1-c1cc(C(CC(=O)O)NC(=O)C(CC(C)C)n2cc(CC3CCN(C(C)C)CC3)c(C(F)(F)F)cc2=O)cc2c1CCC2` (stereo not shown) [Trifluoroacetate salt of compound 22-2], for which the IC50 against integrin α4β1 was > 100 nM; at integrin α4β7 it was < 0.5 nM.
For `Cc1cc(F)cc(C)c1-c1c(F)c(C(CC(=O)O)NC(=O)C(CC(C)C)n2cc(CCC3CCN(C)C3)c(C(F)(F)F)cc2=O)c(F)c2c1CCC2` (stereo not shown) [Trifluoroacetate salt of compound 26-2], in that order: > 100 nM and < 1 nM.
